Test results taken from patent publication US20210186960A1, “MODULATORS OF INDOLEAMINE 2,3-DIOXYGENASE” (GLAXOSMITHKLINE INTELLECTUAL PROPERTY DEVELOPMENT LIMITED, priority 2017, published 2021).
Values belong to the compound of their own block, whether it stands above or below them.

How the values were obtained:
[1] = target: T1, indoleamine 2, 3-dioxygenase (IDO1) (Homo sapiens, UniProt P14902); assay: IDO1 PBMC RapidFire MS assay (kynurenine detection); type: cell-based; conditions: IFN-γ/LPS stimulated human PBMC, kynurenine by MS, 2 days; read-out: PBMC PXC50 (converted)
T1 construct: to induce the expression of indoleamine 2, 3-dioxygenase (IDO1); host or cells: human PBMC stimulated with IFN-gamma and LPS
T1 sequence (P14902 whole entry): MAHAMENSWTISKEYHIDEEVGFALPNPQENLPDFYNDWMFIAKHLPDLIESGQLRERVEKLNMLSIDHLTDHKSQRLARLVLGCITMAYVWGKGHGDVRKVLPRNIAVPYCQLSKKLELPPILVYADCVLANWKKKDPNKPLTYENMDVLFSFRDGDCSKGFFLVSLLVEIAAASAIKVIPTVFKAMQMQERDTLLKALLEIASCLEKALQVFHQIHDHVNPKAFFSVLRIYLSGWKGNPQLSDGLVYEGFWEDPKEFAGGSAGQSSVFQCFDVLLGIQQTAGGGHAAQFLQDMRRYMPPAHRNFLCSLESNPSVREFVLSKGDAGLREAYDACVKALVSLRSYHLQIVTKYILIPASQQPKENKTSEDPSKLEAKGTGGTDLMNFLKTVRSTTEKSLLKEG
Procedure: (§1) Compounds of the present invention were tested via high-throughput cellular assays utilizing detection of kynurenine via mass spectrometry and cytotoxicity as end-points. For the mass spectrometry and cytotoxicity assays, human peripheral blood mononuclear cells (PBMC) (PB003F; AllCells®, Alameda, Calif.) were stimulated with human interferon-γ (IFN-γ) (Sigma-Aldrich Corporation, St. Louis, Mo.) and lipopolysaccharide from Salmonella minnesota (LPS) (Invivogen, San Diego, Calif.) to induce the expression of indoleamine 2, 3-dioxygenase (IDO1). Compounds with IDO1 inhibitory properties decreased the amount of kynurenine produced by the cells via the tryptophan catabolic pathway. Cellular toxicity due to the effect of compound treatment was measured using CellTiter-Glo® reagent (CTG) (Promega Corporation, Madison, Wis.), which is based on luminescent detection of ATP, an indicator of metabolically active cells.
(§2) In preparation for the assays, test compounds were serially diluted 3-fold in
(§3) DMSO from a typical top concentration of 1 mM or 5 mM and plated at 0.5 μL in 384-well, polystyrene, clear bottom, tissue culture treated plates with lids (Greiner Bio-One, Kremsmünster, Austria) to generate 11-point dose response curves. Low control wells (0% kynurenine or 100% cytotoxicity) contained either 0.5 μL of DMSO in the presence of unstimulated (−IFN-γ/−LPS) PBMCs for the mass spectrometry assay or 0.5 μL of DMSO in the absence of cells for the cytotoxicity assay, and high control wells (100% kynurenine or 0% cytotoxicity) contained 0.5 μL of DMSO in the presence of stimulated (+IFN-γ/+LPS) PBMCs for both the mass spectrometry and cytotoxicity assays.
(§4) Frozen stocks of PBMCs were washed and recovered in RPMI 1640 medium (Thermo Fisher Scientific, Inc., Waltham, Mass.) supplemented with 10% v/v heat-inactivated fetal bovine serum (FBS) (Thermo Fisher Scientific, Inc., Waltham, Mass.), and 1× penicillin-streptomycin antibiotic solution (Thermo Fisher Scientific, Inc., Waltham, Mass.). The cells were diluted to 1,000,000 cells/mL in the supplemented RPMI 1640 medium. 50 μL of either the cell suspension, for the mass spectrometry assay, or medium alone, for the cytotoxicity assay, were added to the low control wells, on the previously prepared 384-well compound plates, resulting in 50,000 cells/well or 0 cells/well respectively. IFN- y and LPS were added to the remaining cell suspension at final concentrations of 100 ng/ml and 50 ng/ml respectively, and 50 μL of the stimulated cells were added to all remaining wells on the 384-well compound plates. The plates, with lids, were then placed in a 37 °C, 5% CO2 humidified incubator for 2 days.
(§5) Following incubation, the 384-well plates were removed from the incubator and allowed to equilibrate to room temperature for 30 minutes. For the cytotoxicity assay, CellTiter-Glo® was prepared according to the manufacturer's instructions, and 40 μL were added to each plate well. After a twenty minute incubation at room temperature, luminescence was read on an EnVision® Multilabel Reader (Perkin Elmer Inc., Waltham, Mass.). For the mass spectrometry assay, 10 μL of supernatant from each well of the compound-treated plates were added to 40 μL of acetonitrile, containing 10 μM of an internal standard for normalization, in 384-well, polypropylene, V-bottom plates (Greiner Bio-One, Kremsmunster, Austria) to extract the organic analytes. Following centrifugation at 2000 rpm for 10 minutes, 10 μL from each well of the acetonitrile extraction plates were added to 90 μL of sterile, distilled H2O in 384-well, polypropylene, V-bottom plates for analysis of kynurenine and the internal standard on the RapidFire 300 (Agilent Technologies, Santa Clara, Calif.) and 4000 QTRAP MS (SCIEX, Framingham, Mass.). MS data were integrated using Agilent Technologies' RapidFire Integrator software, and data were normalized for analysis as a ratio of kynurenine to the internal standard. […]

[2] = system: human peripheral blood mononuclear cells (PBMC); assay: PBMC cytotoxicity assay (CellTiter-Glo); type: cell-based; conditions: pCC50, CellTiter-Glo, stimulated human PBMC, 2 days
Procedure: as §1, §2, §3, §4, §5

[3] = Rat oral PK studies of prodrugs at 5 mg/kg; type: in vivo; conditions: analyte as labelled
Procedure: Rat oral PK studies of prodrugs at 5 mg/kg dose (solution in 100% (40 mg oleic acid+25mg Tween 80+2 mL of PBS/fresh) at 0.5 mg/mL).

[4] = Plasma PK and tissue distribution after oral dosing of prodrug EXAMPLE 7 (5 mg/kg); type: in vivo; conditions: PO 5 mg/kg EXAMPLE 7 (prodrug), male Wistar Han rat, analyte as labelled
Procedure: Tissue Distribution of drug intermediate C4 from oral dosing of C4 and of intermediate C4 from oral dosing of example 7 in rats
• Wistar Han rat, 185-197 g, male, N=8, purchased from Beijing Vital River Co. LTD. Qualification No.: SCXK(J) 2016-0011 11400700240027. Fasted overnight and fed 4 hr post dose. PO: 5 mg/kg (10 mL/kg) via oral gavage(N=8). Sampling at 1, 4, 8 and 24 hr , 4 time points, terminal bleeding for plasma, liver, lymph nodes and spleen collected at each time point

[5] = after PO dose of 5 mg/kg example 6 in male Wistar Han rat

IC50 [1]: 0.251 µM
DNAUC0_20 ([3]; after PO dose of 5 mg/kg example 2 in male Wistar Han rat): not detected
Compound: CCCCCCCCCCCCCCCC(=O)OCC(COC(=O)CCCCCCCCCCCCCCC)OC(=O)CCCC(=O)O[C@H]1CC[C@H](N(CC(C)C)c2ccc([C@H](C)CC(=O)O)cc2Nc2cnc(Cl)cn2)CC1 [example 2, (R)-3-(4-((trans-4-((5-((1,3-bis(palmitoyloxy)propan-2-yl)oxy)-5-oxopentanoyl)oxy)cyclohexyl) (isobutyl)amino)-3-((5-chloropyrazin-2-yl)amino)phenyl)butanoic acid]
PBMC TOX PXC50 [2]: <5

IC50 [1]: 0.158 µM
Compound: CCCCCCCCCCCCCCCC(=O)OCC(COC(=O)CCCCCCCCCCCCCCC)OC(=O)CCCC(=O)O[C@H]1CC[C@H](N(CC(C)C)c2ccc([C@H](C)CC(=O)O)cc2Nc2ccc(Cl)nc2)CC1 [example 1, (R)-3-(4-((trans-4-((5-((1,3-bis(palmitoyloxy)propan-2-yl)oxy)-5-oxopentanoyl)oxy)cyclohexyl) (isobutyl)amino)-3-((6-chloropyridin-3-yl)amino)phenyl)butanoic acid]
PBMC TOX PXC50 [2]: <5

IC50 [1]: 1.26 µM
Compound: CCCCCCCCCCCCCCCC(=O)OCC(COC(=O)CCCCCCCCCCCCCCC)OC(=O)CC(C)CC(=O)O[C@H]1CC[C@H](N(CC(C)C)c2ccc([C@H](C)CC(=O)O)cc2Nc2ccc(Cl)nc2)CC1 (stereo partly drawn) [example 3, (3R)-3-(4-((trans-4-((5-((1,3-bis(palmitoyloxy)propan-2-yl)oxy)-3-methyl-5-oxopentanoyl)oxy)cyclohexyl) (isobutyl)amino)-3-((6-chloropyridin-3-yl)amino)phenyl)butanoic acid]
PBMC TOX PXC50 [2]: <5

IC50 [1]: 3.16 µM
DNAUC0_20 [3, 5]: not detected
Compound: CCCCCCCCCCCCCCCC(=O)OCC(COC(=O)CCCCCCCCCCCCCCC)OC(=O)CC(C)CC(=O)OCOC(=O)C[C@@H](C)c1ccc(N(CC(C)C)C2CCOCC2)c(Nc2ccc(Cl)nc2)c1 (stereo partly drawn) [example 6, 1-(1,3-bis(palmitoyloxy)propan-2-yl) 5-((((R)-3-(3-((6-chloropyridin-3-yl)amino)-4-(isobutyl(tetrahydro-2H-pyran-4-yl)amino)phenyl)butanoyl)oxy)methyl) 3-methylpentanedioate]
PBMC TOX PXC50 [2]: <5

IC50 [1]: 1 µM
DNAUC0_20 ([3]; after PO dose of 5 mg/kg example 7 in male Wistar Han rat): not detected
liver Concentration Mean ([4]; 1 hr): BQL
liver Concentration individual ([4]; 1 hr): BQL
lymph node Concentration Mean ([4]; 1 hr): BQL
lymph node Concentration individual ([4]; 1 hr): BQL
plasma Concentration Mean ([4]; 1 hr): BQL
plasma Concentration individual ([4]; 1 hr): BQL
spleen Concentration Mean ([4]; 1 hr): BQL
spleen Concentration individual ([4]; 1 hr): BQL
liver Concentration Mean ([4]; 4 hr): BQL
liver Concentration individual ([4]; 4 hr): BQL
lymph node Concentration Mean ([4]; 4 hr): BQL
lymph node Concentration individual ([4]; 4 hr): BQL
plasma Concentration Mean ([4]; 4 hr): BQL
plasma Concentration individual ([4]; 4 hr): BQL
spleen Concentration Mean ([4]; 4 hr): BQL
spleen Concentration individual ([4]; 4 hr): BQL
liver Concentration Mean ([4]; 8 hr): BQL
liver Concentration individual ([4]; 8 hr): BQL
lymph node Concentration Mean ([4]; 8 hr): BQL
lymph node Concentration individual ([4]; 8 hr): BQL
plasma Concentration Mean ([4]; 8 hr): BQL
plasma Concentration individual ([4]; 8 hr): BQL
spleen Concentration Mean ([4]; 8 hr): BQL
spleen Concentration individual ([4]; 8 hr): BQL
liver Concentration Mean ([4]; 24 hr): BQL
liver Concentration individual ([4]; 24 hr): BQL
lymph node Concentration Mean ([4]; 24 hr): BQL
lymph node Concentration individual ([4]; 24 hr): BQL
plasma Concentration Mean ([4]; 24 hr): BQL
plasma Concentration individual ([4]; 24 hr): BQL
spleen Concentration Mean ([4]; 24 hr): BQL
spleen Concentration individual ([4]; 24 hr): BQL
Compound: CCCCCCCCCCCCCCCC(=O)OCC(COC(=O)CCCCCCCCCCCCCCC)OC(=O)CC(C)CC(=O)OCOC(=O)C[C@@H](C)c1ccc(N(CC(C)C)C2CCOCC2)c(Nc2cnc(Cl)cn2)c1 (stereo partly drawn) [example 7, 1-(1,3-bis(palmitoyloxy)propan-2-yl) 5-((((R)-3-(3-((5-chloropyrazin-2-yl)amino)-4-(isobutyl(tetrahydro-2H-pyran-4-yl)amino)phenyl)butanoyl)oxy)methyl) 3-methylpentanedioate]
PBMC TOX PXC50 [2]: <5

Compound: CC(C)CN(c1ccc([C@H](C)CC(=O)O)cc1Nc1ccc(Cl)nc1)[C@H]1CC[C@H](O)CC1 [intermediate C2, (R)-3-(3-((6-chloropyridin-3-yl)amino)-4-(((1r,4R)-4 hydroxycyclohexyl)(isobutyl)amino)-phenyl)butanoic acid]
PBMC TOX PXC50 [2]: <5

IC50 [1]: 0.631 µM
DNAUC0_20 ([3]; after PO dose of 5 mg/kg example 5 in male Wistar Han rat): not detected
Compound: CCCCCCCCCCCCCCCC(=O)OCC(COC(=O)CCCCCCCCCCCCCCC)OC(=O)CC(C)CC(=O)Oc1cc(C)cc(C)c1C(C)(C)CC(=O)O[C@H]1CC[C@H](N(CC(C)C)c2ccc([C@H](C)CC(=O)O)cc2Nc2cnc(Cl)cn2)CC1 (stereo partly drawn) [example 5, (3R)-3-(4-((trans-4-((3-(2-((5-((1,3-bis(palmitoyloxy)propan-2-yl)oxy)-3-methyl-5-oxopentanoyl)oxy)-4,6-dimethylphenyl)-3-methylbutanoyl)oxy)cyclohexyl)(isobutyl)amino)-3-((5-chloropyrazin-2-yl)amino)phenyl)butanoic acid]
PBMC TOX PXC50 [2]: <5

Compound: CC(C)CN(c1ccc([C@H](C)CC(=O)O)cc1Nc1cnc(Cl)cn1)[C@H]1CC[C@H](O)CC1 [intermediate C3]
PBMC TOX PXC50 [2]: <5

DNAUC0_20 [3, 5]: 75 ng·h/mL
Compound: CC(C)CN(c1ccc([C@H](C)CC(=O)O)cc1Nc1ccc(Cl)nc1)C1CCOCC1 [intermediate C5]
PBMC TOX PXC50 [2]: <5

IC50 [1]: 7.94 µM
Compound: CCCCCCCCCCCCCCCC(=O)OCC(COC(=O)CCCCCCCCCCCCCCC)OC(=O)CC(C)CC(=O)O[C@H]1CC[C@H](N(CC(C)C)c2ccc([C@H](C)CC(=O)O)cc2Nc2cnc(Cl)cn2)CC1 (stereo partly drawn) [example 4, (3R)-3-(4-((trans-4-((5-((1,3-bis(palmitoyloxy)propan-2-yl)oxy)-3-methyl-5-oxopentanoyl)oxy)cyclohexyl) (isobutyl)amino)-3-((5-chloropyrazin-2-yl)amino)phenyl)butanoic acid]
PBMC TOX PXC50 [2]: <5
